From patent publication US20260076372A1, “SPRAYABLE ANTIFUNGAL COMPOSITION FOR USE IN THE FIELD OF AGRICULTURE, AND ASSOCIATED METHOD AND USE” (GAIAGO, priority 2022, published 2026)

Experiments:
Assay type in all cases: cell-based
Alternaria solani = assay: in vitro 96-well micro-titration test on Alternaria solani spores; conditions: for EC95 (%): A. solani, Table 22, ingredient alone in water
[1] = system: Septoria tritici (Zymoseptoria tritici); assay: in vitro 96-well micro-titration test on Septoria tritici / Zymoseptoria tritici; conditions: for EC95 (%): Z. tritici, Table 23, ingredient alone in water
Plasmopara viticola = assay: in vitro antifungal action of single ingredients on Plasmopara viticola
Excerpt: In Vitro Results Showing the Syngergistic Action of Yucca Juice with the Other Compounds of the Composition According to the Invention on A. solani, Z. tritici, and Plasmopara viticola,
The following tables show in vitro the synergistic antifungal action between yucca juice and the other compounds of the composition of the invention on various pathogens. The concentrations given are as a mass %. The solutions tested as aqueous solutions.
Mo denotes sodium molybdate, Bo denotes boron ethanolamine.

[2] = Concentration 0.05% mass of the stated aqueous solution

| Structure (SMILES) | EC95 (%) (Alternaria solani) | inhibition of A. solani, ingredient alone in water (Alternaria solani; [2]) | inhibition of A. solani, ingredient alone in water (Alternaria solani; Concentration 0.50%) | inhibition of A. solani, ingredient alone in water (Alternaria solani; Concentration 1.00%) | inhibition of A. solani, ingredient alone in water (Alternaria solani; Concentration 2.00%) | inhibition of A. solani, ingredient alone in water (Alternaria solani; Concentration 3.00%) | inhibition of A. solani, ingredient alone in water (Alternaria solani; Concentration 6.00%) | inhibition of A. solani, ingredient alone in water (Alternaria solani; Concentration 10.00%) | inhibition of Z. tritici, ingredient alone in water ([1]; Concentration 0.05%) | inhibition of Z. tritici, ingredient alone in water ([1]; Concentration 0.50%) | inhibition of Z. tritici, ingredient alone in water ([1]; Concentration 1.00%) | inhibition of Z. tritici, ingredient alone in water ([1]; Concentration 2.00%) | inhibition of Z. tritici, ingredient alone in water ([1]; Concentration 3.00%) | inhibition of Z. tritici, ingredient alone in water ([1]; Concentration 6.00%) | inhibition of Z. tritici, ingredient alone in water ([1]; Concentration 10.00%) | EC95 (%) [1] | in vitro activity against Plasmopara viticola, ingredient alone in water (Plasmopara viticola; Concentration 0.05%) | in vitro activity against Plasmopara viticola, ingredient alone in water (Plasmopara viticola; Concentration 0.50%) | in vitro activity against Plasmopara viticola, ingredient alone in water (Plasmopara viticola; Concentration 1.00%) | in vitro activity against Plasmopara viticola, ingredient alone in water (Plasmopara viticola; Concentration 2.00%) | other results |
| --- | --- | --- | --- | --- | --- | --- | --- | --- | --- | --- | --- | --- | --- | --- | --- | --- | --- | --- | --- | --- | --- |
| O=S(=O)([O-])[O-].[Cu+2] [Cu 1.5%] | >10% | −2.8% | −1.4% | −1.9% | −1.8% | −4.9% | −1.8% | −2.9% | 11.9% | 17.3% | 22.1% | 23.6% | 20.9% | 24.1% | 28.2% | >10% | – | – | – | – | – |
| [Na+].[Na+].[O]=[Mo](=[O])([O-])[O-] [Mo 0.01%, sodium molybdate] | >10% | 2.2% | −1.2% | −7.4% | −1.3% | −1.8% | −1.5% | −0.4% | −1.7% | −1.1% | −2.3% | −2.2% | −1.8% | −1.6% | −2.2% | >10% | 15.33% | 46.43% | 53.15% | 72.42% | in vitro activity against Plasmopara viticola, ingredient alone in water (Plasmopara viticola; Concentration 3.00%): 74.22%; in vitro activity against Plasmopara viticola, ingredient alone in water (Plasmopara viticola; Concentration 6.00%): 74.22%; in vitro activity against Plasmopara viticola, ingredient alone in water (Plasmopara viticola; Concentration 10.00%): 96.02% |
| O=S(=O)([O-])[O-].[Mn+2] [Mn 7%] | 6.4% | 0.0% | 16.9% | 29.6% | 73.2% | 89.4% | 94.5% | 101.1% | 11.3% | 27.6% | 33.5% | 28.7% | 28.0% | 29.0% | 29.5% | >10% | 25.41% | 89.41% | 94.78% | 97.25% | in vitro activity against Plasmopara viticola, ingredient alone in water (Plasmopara viticola; Concentration 3.00%): 97.53%; in vitro activity against Plasmopara viticola, ingredient alone in water (Plasmopara viticola; Concentration 6.00%): 97.69%; in vitro activity against Plasmopara viticola, ingredient alone in water (Plasmopara viticola; Concentration 10.00%): 97.64% |
| O=S(=O)([O-])[O-].[Fe+2] [Fe 4%] | 2.3% | −4.7% | −4.3% | −0.4% | 49.6% | 100.0% | 100.0% | 100.0% | 9.8% | 37.1% | 38.8% | 54.9% | 100.0% | 100.0% | 100.0% | 2.86% | – | – | – | – | efficacy against Z. tritici (glume blotch) in vitro ([1]; dose of 0.5%): ~37% |
